Laboratory results taken from paper PMC3724850, “A Scallop Nitric Oxide Synthase (NOS) with Structure Similar to Neuronal NOS and Its Involvement in the Immune Defense” (PLoS ONE, 2013).

Target: T1, CfNOS (native) (Azumapecten farreri, UniProt S4UD24)
T1 construct: gene NOS; immunoprecipitated from scallop haemocyte lysate with rat polyclonal antibody to rCfNOS, Protein G column
T1 sequence (S4UD24 1-1486): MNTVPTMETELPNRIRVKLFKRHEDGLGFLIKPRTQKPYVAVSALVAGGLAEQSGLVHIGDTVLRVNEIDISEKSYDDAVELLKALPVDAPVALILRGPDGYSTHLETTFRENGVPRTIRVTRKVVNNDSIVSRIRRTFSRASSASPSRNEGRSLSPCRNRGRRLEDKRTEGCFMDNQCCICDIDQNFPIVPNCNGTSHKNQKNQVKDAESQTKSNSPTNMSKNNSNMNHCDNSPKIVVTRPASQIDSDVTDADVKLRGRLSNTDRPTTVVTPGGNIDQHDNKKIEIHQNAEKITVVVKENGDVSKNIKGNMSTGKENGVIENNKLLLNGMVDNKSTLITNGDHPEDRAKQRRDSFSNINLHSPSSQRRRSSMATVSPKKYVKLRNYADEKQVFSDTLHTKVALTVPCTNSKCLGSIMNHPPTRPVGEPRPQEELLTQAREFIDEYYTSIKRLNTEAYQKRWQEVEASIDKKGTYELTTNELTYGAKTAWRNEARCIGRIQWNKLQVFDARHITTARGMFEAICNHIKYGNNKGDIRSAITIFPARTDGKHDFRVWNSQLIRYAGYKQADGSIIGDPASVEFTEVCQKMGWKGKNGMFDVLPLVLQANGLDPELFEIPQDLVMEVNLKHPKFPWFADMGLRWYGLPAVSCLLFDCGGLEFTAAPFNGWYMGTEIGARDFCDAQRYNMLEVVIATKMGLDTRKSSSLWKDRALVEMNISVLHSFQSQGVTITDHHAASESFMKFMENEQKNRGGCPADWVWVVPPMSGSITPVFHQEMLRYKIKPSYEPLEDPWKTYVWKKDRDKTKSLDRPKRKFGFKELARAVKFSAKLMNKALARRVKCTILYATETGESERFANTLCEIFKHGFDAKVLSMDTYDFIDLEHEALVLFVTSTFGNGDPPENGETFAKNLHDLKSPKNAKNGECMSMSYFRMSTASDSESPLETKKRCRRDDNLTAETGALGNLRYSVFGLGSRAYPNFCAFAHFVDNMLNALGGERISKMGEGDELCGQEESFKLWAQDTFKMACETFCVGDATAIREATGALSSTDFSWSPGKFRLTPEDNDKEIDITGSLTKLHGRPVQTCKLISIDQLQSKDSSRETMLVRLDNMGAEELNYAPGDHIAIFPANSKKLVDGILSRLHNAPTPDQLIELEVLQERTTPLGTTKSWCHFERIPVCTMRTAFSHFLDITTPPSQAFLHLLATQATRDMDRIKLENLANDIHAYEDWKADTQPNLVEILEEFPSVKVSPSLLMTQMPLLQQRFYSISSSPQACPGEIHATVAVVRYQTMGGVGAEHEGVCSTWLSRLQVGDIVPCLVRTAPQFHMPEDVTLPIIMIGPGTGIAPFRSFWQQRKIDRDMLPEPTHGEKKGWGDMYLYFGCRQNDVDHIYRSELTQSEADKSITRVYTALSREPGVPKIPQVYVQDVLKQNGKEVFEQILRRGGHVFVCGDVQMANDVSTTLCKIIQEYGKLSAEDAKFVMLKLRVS
Test: NOS activity by total NOS detection kit (absorbance […] nm)
Format: biochemical
Conditions: no inhibitor; immunoprecipitated native enzyme

In the case of `N=C(N)NCCC[C@H](N)C(=O)O` [L-Arginine], the “NOS activity by total NOS detection kit (absorbance 530 nm)” value is reported as “measuring the NO production using L-Arginine as the substrate”.
